Reference: ChEMBL document CHEMBL1212769, “Multiple-dose safety, tolerability, and pharmacokinetics of oral nemonoxacin (TG-873870) in healthy volunteers” (Antimicrob Agents Chemother, 2010)

Experiments:
[1] = AUC (0 to 24 hrs) in human at 500 mg/kg, po measured on day 16; format: ADME, organism-based; design: time < 24 hr, dose 500 mg/kg, route oral; settings: plasma
[2] = AUC (0 to last) in human at 75 mg/kg, po measured on day 1; format: ADME, organism-based; design: time 0 - last, dose 75 mg/kg, route oral; settings: plasma
Homo sapiens [3] = assay: Toxicity in human assessed as occurrence of somnolence at 1000 […], po administered as single dose; format: organism-based; design: route oral; settings: in vivo
Homo sapiens [4] = assay: Toxicity in human assessed as occurrence of dermatitis at 750 […], po administered as single dose; format: organism-based; design: route oral; settings: in vivo
[5] = Renal clearance in human at 75 […], po measured on day 10; format: ADME, organism-based, Kidney; design: route oral; settings: in vivo, read-out: CL_renal (converted)
[6] = Clearance in human assessed as compound recovered in urine at 500 mg/kg, po measured on day 10 up to 24 hrs post dose; format: ADME, organism-based; design: dose 500 mg/kg, route oral; settings: read-out: amount in urine
[7] = Renal clearance in human at 1000 […], po measured on day 1; format: ADME, organism-based, Kidney; design: route oral; settings: in vivo, read-out: CL_renal (converted)
[8] = AUC (0 to last) in human at 250 mg/kg, po measured on day 1; format: ADME, organism-based; design: time 0 - last, dose 250 mg/kg, route oral; settings: plasma
[9] = Cmax in human at 1000 […], po measured on day 1; format: ADME, organism-based; design: dose 1000 mg/kg, route oral; settings: in vivo
Streptococcus pneumoniae = assay: Ratio of fAUC (0 to 24 hrs) to MIC90 for Streptococcus pneumoniae; format: functional
[10] = Renal clearance in human at 250 […], po measured on day 1; format: ADME, organism-based, Kidney; design: route oral; settings: in vivo, read-out: CL_renal (converted)
[11] = AUC (0 to 24 hrs) in human at 75 mg/kg, po measured on day 1; format: ADME, organism-based; design: time < 24 hr, dose 75 mg/kg, route oral; settings: plasma
[12] = AUC (0 to last) in human at 250 mg/kg, po measured on day 10; format: ADME, organism-based; design: time 0 - last, dose 250 mg/kg, route oral; settings: plasma
[13] = AUC (0 to 24 hrs) in human at 75 mg/kg, po measured on day 10; format: ADME, organism-based; design: time < 24 hr, dose 75 mg/kg, route oral; settings: plasma
[14] = Tmax in human at 750 […], po measured on day 10; format: ADME, organism-based; design: dose 750 mg/kg, route oral; settings: in vivo
[15] = Oral clearance in human at 75 mg/kg measured on day 1; format: ADME, organism-based; design: dose 75 mg/kg; settings: in vivo
Homo sapiens [16] = organism: Homo sapiens; assay: Plasma protein binding in human; settings: read-out: PPB (converted)
[17] = AUC (0 to 24 hrs) in human at 250 mg/kg, po measured on day 10; format: ADME, organism-based; design: time < 24 hr, dose 250 mg/kg, route oral; settings: plasma
[18] = Terminal half life in human at 250 […], po measured on day 10; format: ADME, organism-based; design: route oral; settings: in vivo, read-out: beta t1/2 (converted)
[19] = Tmax in human at 500 […], po measured on day 10; format: ADME, organism-based; design: dose 500 mg/kg, route oral; settings: in vivo
Homo sapiens [20] = assay: Toxicity in human assessed as occurrence of somnolence at 750 […], po administered as single dose; format: organism-based; design: route oral; settings: in vivo
[21] = Tmax in human at 500 […], po measured on day 16; format: ADME, organism-based; design: dose 500 mg/kg, route oral; settings: in vivo
Homo sapiens [22] = assay: Toxicity in human assessed as occurrence of somnolence at 250 […], po administered as single dose; format: organism-based; design: route oral; settings: in vivo
[23] = Renal clearance in human at 75 […], po measured on day 1; format: ADME, organism-based, Kidney; design: route oral; settings: in vivo, read-out: CL_renal (converted)
[24] = Tmax in human at 75 […], po measured on day 1; format: ADME, organism-based; design: route oral; settings: in vivo
[25] = Cmax in human at 500 […], po measured on day 10; format: ADME, organism-based; design: dose 500 mg/kg, route oral; settings: in vivo
[26] = Cmax in human at 1000 […], po measured on day 10; format: ADME, organism-based; design: dose 1000 mg/kg, route oral; settings: in vivo
[27] = AUC(0 to last) in human at 500 mg/kg, po measured on day 1; format: ADME, organism-based; design: time 0 - last, dose 500 mg/kg, route oral; settings: plasma

Q: Which results are given for COc1c(N2C[C@@H](C)C[C@H](N)C2)ccc2c(=O)c(C(=O)O)cn(C3CC3)c12 [NEMONOXACIN]?
A: AUC at 24 h [1]: 22700 ng·h/mL; AUC(0-t) [2]: 3780 ng·h/mL; Activity (Homo sapiens [3]): 0%; Activity (Homo sapiens [4]): 0%; CL renal [5]: 168 mL/min; dose excreted at 24 h [6]: 57.8%; CL renal [7]: 125 mL/min; AUC(0-t) [8]: 13700 ng·h/mL; Cmax [9]: 7750 ng/mL; Ratio (Streptococcus pneumoniae): > 100; CL renal [10]: 115 mL/min; AUC(0-t) at 24 h [11]: 3780 ng·h/mL; AUC(0-t) [12]: 18700 ng·h/mL; AUC at 24 h [13]: 4270 ng·h/mL; Tmax [14]: 1.51 h; CL/F [15]: 303 mL/min; fraction unbound (Homo sapiens [16]): 0.84; AUC at 24 h [17]: 16100 ng·h/mL; half-life [18]: 17.6 h; Tmax [19]: 1.31 h; Activity (Homo sapiens [20]): 0%; Tmax [21]: 3.07 h; Activity (Homo sapiens [22]): 0%; CL renal [23]: 198 mL/min; Tmax [24]: 1.09 h; Cmax [25]: 5560 ng/mL; Cmax [26]: 8200 ng/mL; AUC(0-t) [27]: 31600 ng·h/mL
